Entries after “also recorded” stand apart in the source; their conditions may differ.
System: pseudomonas aerigenosa (ATCC 27853) biofilm
Assay: Biofouling test on enhanced tube and smooth tube in laboratory scale cooling tower system (modified P-U-L-S-E fouling monitor)
Assay type: cell-based

Q: [O][Cl+][O-] [chlorine dioxide] was tested. Which “effect on inhibiting and/or removing biofilm” value did it give?
A: Its value is “effective; also recorded: more effective than stabilized bromine”.

Q: What about the “reduction of biofilm deposits (summary of test results)” value of the same compound?
A: Its value is “reduce the deposit of biofilm”.

Q: Which “effect on inhibiting and/or removing biofilm” value does the source give for BrBr [bromine, reference compound] here?
A: Its value is “little effect”.

Q: What about the “reduction of biofilm deposits (summary of test results)” value of the same compound?
A: The value was “not effective alone”.
